Converted amounts (≈) assume the structure as drawn. Blank lines part the entries; values can stand above or below the molecule they belong to.
Tests used:
[1] = molecular target: Nitric oxide synthase 1 (Rattus norvegicus, UniProt P29476); experiment: Inhibition of rat cerebellum nNOS; format: tissue-based
[2] = molecular target: T1, Nitric oxide synthase, inducible (Mus musculus, UniProt P29477); experiment: Inhibition of mouse iNOS in RAW264.7 cells; format: cell-based
T1 sequence (P29477 whole entry): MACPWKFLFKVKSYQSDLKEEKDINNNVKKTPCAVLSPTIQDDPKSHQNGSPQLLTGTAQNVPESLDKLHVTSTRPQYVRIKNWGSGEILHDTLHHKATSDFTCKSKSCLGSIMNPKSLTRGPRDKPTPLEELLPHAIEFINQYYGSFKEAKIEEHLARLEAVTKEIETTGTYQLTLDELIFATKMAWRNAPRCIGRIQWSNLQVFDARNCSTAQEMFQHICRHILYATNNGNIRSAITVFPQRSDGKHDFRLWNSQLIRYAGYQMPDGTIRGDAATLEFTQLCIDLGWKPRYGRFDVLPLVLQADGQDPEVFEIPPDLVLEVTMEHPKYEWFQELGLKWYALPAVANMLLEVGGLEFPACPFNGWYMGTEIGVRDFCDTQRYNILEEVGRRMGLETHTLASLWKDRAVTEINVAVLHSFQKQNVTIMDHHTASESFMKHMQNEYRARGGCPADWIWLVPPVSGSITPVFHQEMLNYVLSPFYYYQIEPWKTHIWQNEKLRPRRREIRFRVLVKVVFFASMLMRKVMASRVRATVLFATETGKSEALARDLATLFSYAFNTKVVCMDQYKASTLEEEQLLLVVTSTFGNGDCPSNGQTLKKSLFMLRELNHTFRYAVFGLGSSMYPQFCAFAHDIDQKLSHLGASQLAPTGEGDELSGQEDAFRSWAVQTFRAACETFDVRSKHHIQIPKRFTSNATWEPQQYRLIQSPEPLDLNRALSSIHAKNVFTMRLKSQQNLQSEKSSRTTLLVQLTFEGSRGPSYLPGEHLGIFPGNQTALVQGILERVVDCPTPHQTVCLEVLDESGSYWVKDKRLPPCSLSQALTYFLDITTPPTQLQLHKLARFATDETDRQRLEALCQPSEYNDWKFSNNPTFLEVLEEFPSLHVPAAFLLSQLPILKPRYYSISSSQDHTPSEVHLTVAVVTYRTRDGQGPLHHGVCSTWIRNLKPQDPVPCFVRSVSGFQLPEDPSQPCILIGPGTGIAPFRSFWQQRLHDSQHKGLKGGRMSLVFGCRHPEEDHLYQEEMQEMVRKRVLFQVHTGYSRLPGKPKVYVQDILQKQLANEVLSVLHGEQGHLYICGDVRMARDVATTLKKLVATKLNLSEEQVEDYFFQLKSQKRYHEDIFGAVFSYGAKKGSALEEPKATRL

[3] = molecular target: T2, Nitric oxide synthase 3 (Homo sapiens, UniProt P29474); experiment: Inhibition of human Endothelial cells eNOS; format: cell-based, Endothelial cell
T2 sequence (P29474 whole entry): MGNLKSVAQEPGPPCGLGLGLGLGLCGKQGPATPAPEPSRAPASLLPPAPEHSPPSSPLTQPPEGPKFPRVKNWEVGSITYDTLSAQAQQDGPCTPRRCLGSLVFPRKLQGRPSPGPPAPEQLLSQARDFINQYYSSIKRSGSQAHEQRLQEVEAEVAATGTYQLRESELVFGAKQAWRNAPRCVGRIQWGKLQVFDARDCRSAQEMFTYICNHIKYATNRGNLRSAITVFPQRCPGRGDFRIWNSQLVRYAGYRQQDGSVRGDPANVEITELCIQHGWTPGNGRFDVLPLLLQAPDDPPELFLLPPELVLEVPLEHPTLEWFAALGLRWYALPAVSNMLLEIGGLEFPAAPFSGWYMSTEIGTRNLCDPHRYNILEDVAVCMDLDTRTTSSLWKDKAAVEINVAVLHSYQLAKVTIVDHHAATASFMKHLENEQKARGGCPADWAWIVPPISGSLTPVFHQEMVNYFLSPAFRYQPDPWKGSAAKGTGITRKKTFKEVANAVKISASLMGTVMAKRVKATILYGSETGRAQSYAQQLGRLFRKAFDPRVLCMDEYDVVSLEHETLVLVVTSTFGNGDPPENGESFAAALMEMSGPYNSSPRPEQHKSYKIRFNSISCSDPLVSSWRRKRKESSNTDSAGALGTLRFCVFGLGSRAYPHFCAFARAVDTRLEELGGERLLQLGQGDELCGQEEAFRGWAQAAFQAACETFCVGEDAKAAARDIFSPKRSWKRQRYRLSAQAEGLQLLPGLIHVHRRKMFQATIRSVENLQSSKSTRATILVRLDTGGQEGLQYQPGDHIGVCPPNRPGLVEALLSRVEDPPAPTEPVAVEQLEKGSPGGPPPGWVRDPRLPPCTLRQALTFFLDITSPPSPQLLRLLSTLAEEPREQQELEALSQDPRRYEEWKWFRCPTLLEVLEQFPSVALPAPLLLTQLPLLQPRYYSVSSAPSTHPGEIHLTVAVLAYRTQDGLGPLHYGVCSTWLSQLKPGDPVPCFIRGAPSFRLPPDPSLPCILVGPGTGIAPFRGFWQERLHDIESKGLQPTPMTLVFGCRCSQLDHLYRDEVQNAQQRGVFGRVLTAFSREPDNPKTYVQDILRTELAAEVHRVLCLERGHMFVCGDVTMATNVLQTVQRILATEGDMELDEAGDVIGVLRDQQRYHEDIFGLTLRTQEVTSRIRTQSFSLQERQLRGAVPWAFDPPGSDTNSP

[4] = test system: Platelet; experiment: Inhibition of ADP-induced platelet aggregation (unknown origin); format: functional, cell-based
[5] = Water solubility at pH 7.4; format: physicochemical
[6] = molecular target: T3, Nitric oxide synthase 1 (Homo sapiens, UniProt P29475); experiment: Binding affinity to GST-tagged nNOS (unknown origin) expressed in Escherichia coli BL21 (DE3) assessed as change in enthalpy
[7] = Permeability of the compound across blood brain barrier at pH 7.4 at 12.5 uM incubated for 4 hrs by PAMPA assay; format: ADME; details: read-out: permeability
[8] = Inhibition of NOS (unknown origin); parameters: species or system Homo sapiens
[9] = molecular target: Nitric oxide synthase, inducible (Homo sapiens, UniProt P35228); experiment: Binding affinity to iNOS (unknown origin) assessed as inhibition constant
[10] = molecular target: T2, Nitric oxide synthase 3; experiment: Binding affinity to eNOS (unknown origin) assessed as inhibition constant
[11] = molecular target: T3, Nitric oxide synthase 1; experiment: Binding affinity to nNOS (unknown origin) assessed as inhibition constant
[12] = molecular target: Nitric oxide synthase, inducible (Rattus norvegicus, UniProt Q06518); experiment: Inhibition of rat iNOS
[13] = molecular target: T4, Nitric oxide synthase 3 (Bos taurus, UniProt P29473); experiment: Inhibition of bovine eNOS
T4 sequence (P29473 whole entry): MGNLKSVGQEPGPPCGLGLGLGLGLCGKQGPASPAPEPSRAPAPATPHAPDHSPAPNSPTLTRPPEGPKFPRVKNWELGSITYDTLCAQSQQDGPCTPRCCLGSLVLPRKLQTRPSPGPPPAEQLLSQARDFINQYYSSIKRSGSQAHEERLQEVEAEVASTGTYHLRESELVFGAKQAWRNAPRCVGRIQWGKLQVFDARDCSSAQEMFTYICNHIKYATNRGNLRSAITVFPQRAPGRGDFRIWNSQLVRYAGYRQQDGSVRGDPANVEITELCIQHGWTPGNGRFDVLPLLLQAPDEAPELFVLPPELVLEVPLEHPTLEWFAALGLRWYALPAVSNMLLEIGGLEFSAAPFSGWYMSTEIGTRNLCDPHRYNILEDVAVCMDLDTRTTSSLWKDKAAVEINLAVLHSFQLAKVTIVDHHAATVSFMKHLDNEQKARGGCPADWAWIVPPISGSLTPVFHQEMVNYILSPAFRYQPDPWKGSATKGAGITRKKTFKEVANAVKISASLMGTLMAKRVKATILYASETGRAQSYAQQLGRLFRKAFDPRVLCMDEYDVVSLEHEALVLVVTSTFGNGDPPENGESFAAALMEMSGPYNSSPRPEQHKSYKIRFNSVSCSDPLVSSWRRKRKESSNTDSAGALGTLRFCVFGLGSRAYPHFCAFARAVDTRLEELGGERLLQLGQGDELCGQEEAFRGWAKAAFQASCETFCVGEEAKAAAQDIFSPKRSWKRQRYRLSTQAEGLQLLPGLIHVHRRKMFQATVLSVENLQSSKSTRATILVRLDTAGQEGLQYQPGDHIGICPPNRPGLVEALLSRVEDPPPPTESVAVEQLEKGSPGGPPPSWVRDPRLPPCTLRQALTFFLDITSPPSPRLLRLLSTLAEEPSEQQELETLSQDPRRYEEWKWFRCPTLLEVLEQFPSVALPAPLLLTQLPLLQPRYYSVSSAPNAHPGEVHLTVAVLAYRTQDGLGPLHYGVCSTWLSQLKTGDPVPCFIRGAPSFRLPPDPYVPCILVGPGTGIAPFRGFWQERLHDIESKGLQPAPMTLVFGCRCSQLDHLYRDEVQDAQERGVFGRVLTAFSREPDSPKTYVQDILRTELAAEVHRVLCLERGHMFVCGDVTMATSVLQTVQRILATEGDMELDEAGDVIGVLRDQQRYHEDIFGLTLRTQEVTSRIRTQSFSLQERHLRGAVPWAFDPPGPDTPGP

[14] = molecular target: Nitric oxide synthase 1 (Mus musculus, UniProt Q9Z0J4); experiment: Inhibition of mouse nNOS
[15] = test system: Platelet; experiment: Inhibition of AA-induced platelet aggregation in New Zealand White rabbit; format: functional, cell-based; details: Oryctolagus cuniculus
[16] = test system: Platelet; experiment: Inhibition of ADP-induced platelet aggregation in New Zealand White rabbit; format: functional, cell-based; details: Oryctolagus cuniculus
[17] = Neuroprotective activity in rat hippocampal neuron cells assessed as NMDA-induced cGMP production; format: functional, cell-based; details: Hippocampal neurone

Nitric oxide synthase 1 (Rattus norvegicus, UniProt P29476), sequence (P29476 whole entry): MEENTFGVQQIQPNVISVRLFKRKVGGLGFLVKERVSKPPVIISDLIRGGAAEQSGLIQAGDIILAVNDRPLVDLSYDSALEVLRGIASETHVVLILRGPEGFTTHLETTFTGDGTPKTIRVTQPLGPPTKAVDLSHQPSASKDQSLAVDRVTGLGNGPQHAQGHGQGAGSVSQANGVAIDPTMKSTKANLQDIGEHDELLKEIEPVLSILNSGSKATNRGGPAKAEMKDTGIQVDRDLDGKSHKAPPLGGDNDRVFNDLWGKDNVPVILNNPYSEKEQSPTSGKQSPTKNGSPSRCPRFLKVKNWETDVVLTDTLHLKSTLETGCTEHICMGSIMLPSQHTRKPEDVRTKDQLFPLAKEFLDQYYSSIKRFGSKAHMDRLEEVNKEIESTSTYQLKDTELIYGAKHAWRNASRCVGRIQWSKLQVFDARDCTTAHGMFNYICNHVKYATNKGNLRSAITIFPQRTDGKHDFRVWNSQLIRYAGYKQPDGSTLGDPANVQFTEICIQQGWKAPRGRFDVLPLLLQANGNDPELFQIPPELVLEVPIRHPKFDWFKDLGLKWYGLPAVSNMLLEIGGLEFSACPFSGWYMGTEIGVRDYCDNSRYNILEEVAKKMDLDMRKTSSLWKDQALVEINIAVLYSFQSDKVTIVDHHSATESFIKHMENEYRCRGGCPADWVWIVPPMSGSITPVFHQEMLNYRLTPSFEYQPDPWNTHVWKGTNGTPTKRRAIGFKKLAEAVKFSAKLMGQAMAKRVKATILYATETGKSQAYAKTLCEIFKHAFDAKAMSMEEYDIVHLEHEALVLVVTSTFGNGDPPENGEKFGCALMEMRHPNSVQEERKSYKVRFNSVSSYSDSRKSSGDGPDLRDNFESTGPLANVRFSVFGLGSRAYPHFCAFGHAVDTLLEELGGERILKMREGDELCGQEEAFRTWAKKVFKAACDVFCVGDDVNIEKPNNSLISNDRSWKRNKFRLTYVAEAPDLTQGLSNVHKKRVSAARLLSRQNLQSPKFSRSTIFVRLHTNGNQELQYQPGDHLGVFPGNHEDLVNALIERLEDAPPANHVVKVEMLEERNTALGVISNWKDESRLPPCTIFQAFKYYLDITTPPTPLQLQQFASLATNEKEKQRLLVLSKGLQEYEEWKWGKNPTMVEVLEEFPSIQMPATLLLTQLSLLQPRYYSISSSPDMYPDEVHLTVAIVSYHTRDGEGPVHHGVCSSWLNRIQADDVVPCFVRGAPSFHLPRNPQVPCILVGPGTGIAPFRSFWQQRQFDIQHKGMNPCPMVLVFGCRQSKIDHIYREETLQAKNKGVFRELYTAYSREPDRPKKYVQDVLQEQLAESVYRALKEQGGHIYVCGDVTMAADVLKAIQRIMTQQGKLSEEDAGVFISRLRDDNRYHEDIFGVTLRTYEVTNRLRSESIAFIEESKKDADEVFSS
T3 sequence (P29475 whole entry): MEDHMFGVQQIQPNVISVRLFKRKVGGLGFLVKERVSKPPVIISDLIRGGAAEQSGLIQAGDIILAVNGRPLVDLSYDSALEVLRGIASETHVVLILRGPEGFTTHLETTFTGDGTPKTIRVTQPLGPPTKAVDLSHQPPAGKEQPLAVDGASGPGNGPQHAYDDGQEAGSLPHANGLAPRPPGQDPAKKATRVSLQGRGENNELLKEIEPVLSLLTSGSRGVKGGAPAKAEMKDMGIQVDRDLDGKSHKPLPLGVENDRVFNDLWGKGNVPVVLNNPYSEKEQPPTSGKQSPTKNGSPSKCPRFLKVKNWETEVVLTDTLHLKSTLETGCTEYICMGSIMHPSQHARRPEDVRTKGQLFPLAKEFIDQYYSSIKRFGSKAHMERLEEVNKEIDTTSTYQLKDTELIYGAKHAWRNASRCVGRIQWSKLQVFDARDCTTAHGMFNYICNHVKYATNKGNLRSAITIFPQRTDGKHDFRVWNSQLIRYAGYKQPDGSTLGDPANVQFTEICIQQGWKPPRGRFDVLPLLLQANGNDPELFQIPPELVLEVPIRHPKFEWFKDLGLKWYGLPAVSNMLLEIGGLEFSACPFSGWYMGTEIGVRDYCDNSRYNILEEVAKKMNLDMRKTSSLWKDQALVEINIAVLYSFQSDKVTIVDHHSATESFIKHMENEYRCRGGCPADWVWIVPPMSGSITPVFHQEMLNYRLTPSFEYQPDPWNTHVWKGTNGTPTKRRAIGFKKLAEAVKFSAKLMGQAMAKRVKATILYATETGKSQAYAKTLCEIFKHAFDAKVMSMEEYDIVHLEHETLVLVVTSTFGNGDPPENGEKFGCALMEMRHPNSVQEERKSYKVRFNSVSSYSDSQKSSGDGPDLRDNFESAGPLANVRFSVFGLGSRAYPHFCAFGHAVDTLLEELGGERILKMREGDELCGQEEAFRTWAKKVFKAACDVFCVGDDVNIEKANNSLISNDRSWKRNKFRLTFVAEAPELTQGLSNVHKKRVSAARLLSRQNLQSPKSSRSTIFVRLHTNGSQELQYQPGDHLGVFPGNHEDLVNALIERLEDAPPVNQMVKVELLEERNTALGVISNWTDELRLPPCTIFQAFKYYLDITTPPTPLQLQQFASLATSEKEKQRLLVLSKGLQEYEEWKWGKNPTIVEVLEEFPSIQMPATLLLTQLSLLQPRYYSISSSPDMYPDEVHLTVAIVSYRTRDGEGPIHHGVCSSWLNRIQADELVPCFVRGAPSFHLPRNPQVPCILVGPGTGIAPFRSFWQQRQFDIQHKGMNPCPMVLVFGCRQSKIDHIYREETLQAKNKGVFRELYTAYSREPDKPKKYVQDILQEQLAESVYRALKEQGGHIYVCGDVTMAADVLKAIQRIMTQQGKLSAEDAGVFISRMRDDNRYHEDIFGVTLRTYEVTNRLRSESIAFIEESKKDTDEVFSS
Nitric oxide synthase, inducible (Rattus norvegicus, UniProt Q06518), sequence (Q06518 whole entry): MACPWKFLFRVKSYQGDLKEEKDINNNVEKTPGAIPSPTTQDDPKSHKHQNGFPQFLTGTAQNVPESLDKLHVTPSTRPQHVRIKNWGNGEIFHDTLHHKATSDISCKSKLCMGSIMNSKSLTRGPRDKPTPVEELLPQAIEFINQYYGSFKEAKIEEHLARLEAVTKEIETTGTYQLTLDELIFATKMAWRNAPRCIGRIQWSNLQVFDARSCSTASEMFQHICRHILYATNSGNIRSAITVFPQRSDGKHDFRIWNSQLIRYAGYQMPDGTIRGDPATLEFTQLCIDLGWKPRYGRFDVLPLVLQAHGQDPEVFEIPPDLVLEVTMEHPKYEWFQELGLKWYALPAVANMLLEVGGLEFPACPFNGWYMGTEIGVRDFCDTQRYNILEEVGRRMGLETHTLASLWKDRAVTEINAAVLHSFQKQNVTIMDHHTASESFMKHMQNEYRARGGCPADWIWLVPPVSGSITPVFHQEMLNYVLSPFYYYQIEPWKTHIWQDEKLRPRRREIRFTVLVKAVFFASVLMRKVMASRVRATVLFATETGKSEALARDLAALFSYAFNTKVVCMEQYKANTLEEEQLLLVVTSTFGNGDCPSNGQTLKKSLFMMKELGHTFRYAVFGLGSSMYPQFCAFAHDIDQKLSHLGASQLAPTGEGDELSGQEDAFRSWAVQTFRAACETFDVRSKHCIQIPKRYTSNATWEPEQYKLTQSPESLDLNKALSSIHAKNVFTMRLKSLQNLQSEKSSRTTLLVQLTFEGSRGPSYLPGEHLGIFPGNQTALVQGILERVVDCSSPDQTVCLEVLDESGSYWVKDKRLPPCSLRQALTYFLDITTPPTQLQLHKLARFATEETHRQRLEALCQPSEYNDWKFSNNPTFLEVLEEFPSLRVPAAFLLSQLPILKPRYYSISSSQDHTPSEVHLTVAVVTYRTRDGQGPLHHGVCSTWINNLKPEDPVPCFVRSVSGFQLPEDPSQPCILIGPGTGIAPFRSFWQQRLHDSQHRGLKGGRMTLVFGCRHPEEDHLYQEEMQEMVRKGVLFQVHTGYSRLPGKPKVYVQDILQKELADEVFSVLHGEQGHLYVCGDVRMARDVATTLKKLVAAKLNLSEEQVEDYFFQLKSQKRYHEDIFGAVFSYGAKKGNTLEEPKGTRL

Compound: CN1CCc2ccc(NC(=N)c3cccs3)cc2C1
- IC50 [1]: 0.08 µM
- IC50 [2]: 5 µM
- IC50 [3]: 24 µM

Compound: CCCCC(OC(C)=O)c1ccccc1C(=O)O[C@H]1CO[C@H]2[C@@H]1OC[C@H]2OC(=O)NCCO[N+](=O)[O-] (stereo partly specified)
- IC50 [4]: 0.44 µM
- solubility [5]: 2.13 µM (≈ 1.09 µg/mL)

Compound: COC(=O)C[C@H](NC(=O)[C@@H](C)NCCC1CCCCC1)C(=O)N[C@H](C)C(=O)N[C@@H](C(=O)O)C(C)C
- deltaH [6]: -1.67 kcal/mol
- Papp at 4 h, 12.5 µM [7]: 6.07 ×10⁻⁶ cm/s

Compound: COC(=O)[C@@H](N)CCCNC(=N)N[N+](=O)[O-] [L-NAME]
- IC50 [8]: 70 µM

Compound: N=C(N)NN [PIMAGEDINE]
- Ki [9]: 16 µM
- Ki [10]: > 8000 µM
- Ki [11]: 830 µM

Compound: N=C(Nc1ccc2c(c1)CNCC2)c1cccs1
- IC50 [1]: 0.05 µM
- IC50 [2]: 5.5 µM
- IC50 [3]: 10 µM

Results, then the molecule that gave them:

- IC50 [8]: 0.71 µM
Compound: O=[N+]([O-])c1cccc2cn[nH]c12 [7-NITROINDAZOLE]

- IC50 [12]: 27 µM
- IC50 [13]: 1060 µM
- IC50 [14]: 28.2 µM
Compound: FC(F)(F)c1ccccc1-n1ccnc1

- IC50 [15]: 0.556 µM
- IC50 [16]: 0.734 µM
Compound: Cc1nc(C)c(COC(=O)c2cccc(OCCCCO[N+](=O)[O-])c2)nc1C

- IC50 [17]: 2.7 µM
Compound: Oc1c(Cl)cc(Cl)cc1CNc1ccc2nn[nH]c2c1

From ChEMBL document CHEMBL5543067, “Advances in nitric oxide regulators for the treatment of ischemic stroke” (Eur J Med Chem, 2023)
